Measured values from PMC3072408 (PLoS ONE, 2011).
Entries after “also recorded” stand apart in the source; their conditions may differ.

Experiments:
[1] = molecular target: T1, mASAL (Allium sativum, UniProt P83886, G129D/INS129NSNN); assay: biochemical
T1 construct: gene LECASAL
Procedure: Dissociation Constant (Kd) of mannose-bound complex using fluorescence spectroscopy
mASAL and ASAL were separately incubated at 25°C on a Hitachi F-7000 spectrofluorimeter using a Sigma cuvette (volume: 1 ml; pathlength: 1 cm). The solutions were titrated with 10 mM mannose in phosphate buffer (pH 7.2) by adding a small aliquot at a time. Following each addition, the solution was stirred using a magnetic stirrer for 1 min and the fluorescence emission spectrum was recorded between 300 and 400 nm using 295 nm as the excitation wavelength. The excitation and emission band passes were each 5 nm. […] The equation for single-site ligand binding measured through changes in the spectroscopic signal [20] is given by [drawing 1] (1) where ΔF represents the increase or decrease in fluorescence intensity at a given concentration of the ligand, K d is the dissociation constant, and A = K dΔ Fmax. We used equation (1) to calculate the dissociation constant (K d) for binding of mannose, glucose and NAG to mASAL and ASAL.

[2] = molecular target: T2, ASAL (Allium sativum, UniProt P83886); type: binding; settings: read-out: Dissociation constant (Kd)
T2 construct: gene LECASAL; native 25-kDa homodimer
T2 sequence (P83886 31-140): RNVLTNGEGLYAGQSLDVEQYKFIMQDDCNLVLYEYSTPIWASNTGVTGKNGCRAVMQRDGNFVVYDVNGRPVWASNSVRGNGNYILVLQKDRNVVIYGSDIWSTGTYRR

[3] = tested on: rabbit erythrocytes; assay: Hemagglutination assay; type: cell-based; settings: 50 to 6.25 µg/ml, 2% rabbit erythrocytes, 1 hour at 37°C
Procedure: Blood was collected from the rabbit into a syringe pre-filled with 500-µl 0.9% NaCl solution and the blood was immediately transferred to a culture tube pre-filled with 0.9% saline. Subsequently, the erythrocyte solution was prepared by repeated washing with 0.9% saline and spun at 2500 g for 10 minutes at 4°C. After each cycle, the supernatant was carefully removed. […] The erythrocytes were resuspended in 0.9% saline as a 2% (3.5×10^8 cells/ml) cell suspension. Hemagglutination activity of the purified mASAL and /or ASAL was assayed in a 96-well microtiter U-plate according to a 2-fold serial dilution procedure (50, 25, 12.5, 6.25 µg/ml). The samples were diluted with PBS (137 mM NaCl, 2.7 mM KCl, 10 mM Na2HPO4, 1.8 mM KH2PO4; pH 7.4) at which point 50 µl of protein from each dilution was mixed with 50 µl of a 2% suspension of rabbit erythrocytes.

[4] = tested on: F. oxysporum; settings: 4 µg protein, 40 hours at 25°C
[5] = tested on: Lipaphis erysimi; assay: Insect bioassay with artificial diet; type: in vivo; settings: second instar nymphs, survival recorded for 72 h, Probit analysis
Procedure: Insect bioassays were conducted using an artificial diet [9]–[11]. Twenty second instar nymphs of Lipaphis erysimi were used in multiple sets. Polycarbonate petriplates (perforated for air passage at the bottom) were used as a bioassay cage. Nymphs were released into the plates, and the upper edges of the plates were covered with fully stretched parafilm. A modified synthetic diet mixture of 200 µl, supplemented with different concentrations of ASAL and mASAL (5, 10, 15, 20, 25 µg/ml), was dispensed on the stretched parafilm membrane. Another Parafilm membrane was stretched onto this in order to form a pouch. For control plates, 20-mM TrisCl (pH 7.4) was added to the artificial diet instead of experimental proteins. For another set of control experiments, aphids were fed with only 20 mM TrisCl (pH 7.4) without the artificial diet. Each set of experiments for each dose was repeated four times. Data regarding the numbers of nymphs surviving were recorded at 12-h intervals for 72 h. The LC50 values for the toxicity against mustard aphids were determined by Probit analysis ( Table 2 ).

[6] = Man9GlcNAc2Asn, at 25°C; cited from earlier work
[7] = tested on: A. brassicicola; settings: 4 µg protein, 40 hours at 25°C
[8] = tested on: R. solani hyphae; assay: Immunolocalization assay with anti-ASAL antibody; type: cell-based, Rhizoctonia solani; settings: 4 µg protein, 40 hours at 25°C
[9] = tested on: R. solani; settings: 4 µg protein, 40 hours at 25°C
[10] = molecular target: the molecule itself; assay: SEC; Biosep-SEC-S-2000 column, 0.1 M sodium phosphate pH 6.8, 2 ml/min; native ASAL as control; data not shown

For `OC[C@H]1OC(O)[C@H](O)[C@@H](O)[C@@H]1O` (stereo partly drawn) [D-glucose], the Kd [1] was 160 nM and the Kd [2] was 140 nM.

`OC[C@H]1OC(O)[C@@H](O)[C@@H](O)[C@@H]1O` (stereo partly drawn) [Mannose, D-mannose] showed a Kd [1] of 120 nM and a Kd [2] of 60 nM.

Work on `CC(=O)N[C@H]1C(O)O[C@H](CO)[C@@H](O)[C@@H]1O` (some centres unmarked) [NAG, N-acetyl glucosamine] yielded a Kd [1] of 110 nM and a Kd [2] of 300 nM.

With Allium sativum leaf agglutinin [ASAL] the hemagglutination activity [3] was “agglutinated cells form a carpet”, the “propidium iodide uptake (fluorescence, membrane permeabilization)” value (shortened to “propidium iodide uptake”) [4] was “excluded propidium iodide” and the LC50 value [5] was 20.7 µg/mL. For the same molecule, the “binding affinity Ka” value [6] was 1.2e+06 M⁻¹, the “propidium iodide uptake” value [7] was “excluded propidium iodide” and the “binding to fungal membrane (FITC green fluorescence)” value [8] was “absence of any signal; also recorded: no signals were generated”. For the same molecule, the “propidium iodide uptake” value [9] was “excluded propidium iodide”.

B1: Allium sativum leaf agglutinin (natural protein)
chain: RNLLTNGEGLYAGQSLDVEQYKFIMQDDCNLVLYEYSTPIWASNTGVTGKNGCRAVMQRDGNFVVYDVNGRPVWASNSVRGNGNYILVLQKDRNVVIYGSDIWSTGT
In the case of B1, the “stoichiometry N” value [10] is reported as 2.
